Experimental data: patent US20140011811A1, “MYOSIN BINDING PROTEIN-C FOR USE IN METHODS RELATING TO DIASTOLIC HEART FAILURE” (The United States Government as represented by the …, priority 2011, published 2014)

How the values were obtained:
DOCA-salt mice = experiment: Echocardiography (mitral pulse wave Doppler flow and tissue Doppler imaging) in DOCA-salt mouse model of diastolic dysfunction; format: in vivo; details: DOCA-salt+BH4 mice, BH4 supplemental diet 5 mg BH4/day, postoperative day 11 to 18, echocardiography day 18
Protocol: Previously, we have shown that the DOCA-salt mouse model leads to mild hypertension, NOS uncoupling, myocardial oxidative stress, and diastolic dysfunction. A gradual and mild elevation in blood pressure was induced by unilateral nephrectomy, subcutaneous implantation of a controlled release deoxycorticosterone acetate (DOCA) pellet (0.7 mg/d; Innovative Research of America, Sarasota, Fla.), and substituting drinking water with 1.05% saline. Control animals underwent a sham operation, had placebo pellet implantation, and received water without salt.
Mice were divided into two groups which received a control diet (sham N=7; DOCA-salt N=10) and two groups which received a BH4 supplemental diet of 5 mg BH4/day (Research Diets Inc, New Brunswick, N.J.; sham+BH4 N=8; DOCA-salt+BH4 N=8). The supplemental diet began on day 11 after surgery, and continued until day 18, when the mice were analyzed and sacrificed.
Ten days after surgery, we employed echocardiography to characterize the diastolic dysfunction. […] The images for each mouse were recorded for at least 5 s (30-40 cardiac cycles) from which three to five representative cycles with the highest quality imaging were selected. Percent fractional shortenin (% FS) were calculated as 100×(LVEDd)-(LVESd)/(LVEDd) and percent LV ejection fraction (%EF) was calculated as 100×[(7/2.4+LVEDd)×LEDd^3]−[(7/2.4+LVESd)×LVESd^3]/[(7/2.4+LVEDd)×LEDd^3]. […]

MyBP-C = experiment: Pro-Q Diamond gel stain of phosphorylation of MyBP-C in myofibrils from treated DOCA-salt and sham mice; format: in vivo, mouse; details: DOCA-salt or sham mice treated as in Examples 1 and 2
Protocol: DOCA-salt or sham mice were administered ranolazine or BH4 as essentially described in Examples 1 and 2, respectively. Pro-Q Diamond (Invitrogen) gel stain was used to detect changes in phosphorylation states of MyBP-C. Myofibrils were prepared from DOCA-salt and sham models of the mice hearts, and pellets were solubilized in a non-reducing 2× laemmli buffer (4% SDS, 20% glycerol, 0.004% bromophenol blue, and 0.125 M Tris HCl pH 6.8). 25 mM N-ethylmaleimide (NEM) was added to the standard rigor buffer with Triton X-100, the standard rigor wash buffer, and the 2× Laemmli buffer. An RC-DC assay (BioRad) was used to determine protein concentrations. Samples were diluted at 1:1 ratio in reducing sample buffer (8 M urea, 2 M thiourea, 0.05 M tris pH 6.8, 75 mM DTT, 3% SDS, and 0.05% bromophenol blue and approximately 10 μg of protein was loaded on to a 12% resolving 1D SDS-PAGE gel. The gels were stained and destained with Pro-Q Diamond according to the manufacturer's recommendations prior to the imaging with a Typhoon 9410 scanner (GE Healthcare). Coomassie R-250 staining was used to normalize protein load to both actin and the whole lane. Optical density of the proteins was determined using ImageQuant TL (GE Healthcare) software and results were exported to Excel for further analysis.

[1] = tested on: myosin binding protein C (MyBP-C); experiment: Western immunoblotting of S-glutathionylation of MyBP-C in cardiac myofilaments from treated DOCA-salt and sham mice; format: in vivo, mouse; details: chronic ranolazine diet (~1 g/day tablet with 5 mg ranolazine and 0.3 mg P450 inhibitor), postoperative day 11 to 18
Protocol: Chronic Administration of Ranolazine: A special diet contained 5 mg ranolazine, 0.3 mg P450 inhibitor, and 0.25 mg red food color was pressed into a 1-g nutritionally complete grain-based tablet (Harlan, Madison, Wis.). The control diet contained 0.3mg P450 inhibitor and 0.25 mg yellow food color pressed into the same type of 1-g tablets. DOCA-salt and sham mice consumed daily ˜1g of the special diet from postoperative day 11 to 18. Western blot analysis was used to detect for glutathionylated proteins. […] Using the protein concentration determined from an RC-DC (Bio-Rad) assay, 40 μg of total protein was applied to 1D 12% resolving SDS-PAGE gel and transferred onto a 0.2 μM Polyvinylidene fluoride (PVDF) membrane. […] Anti-glutathione mouse monoclonal primary antibody (Virogen, Watertown, Mass.) was used at 1:1000 dilution along with anti-mouse HRP-conjugated secondary antibody (Sigma) at 1:100,000 dilution to detect for S-glutathionylation.10 Optical density of the bands was measured with ImageQuant TL (GE Healthcare) and exported to Excel for further analysis. […] Using the protein concentration determined from an RC-DC (Bio-Rad) assay, 40 µg of total protein was applied to a 12% SDS-PAGE gel and transferred onto a 0.2 pm PVDF membrane. […] Optical density of the bands was measured with ImageQuant TL (GE Healthcare) and exported to Excel for further analysis. […]

For `C[C@H](O)[C@H](O)[C@H]1CNc2nc(N)[nH]c(=O)c2N1` [BH4, tetrahydrobiopterin], the “ratio of E′A′ (mitral tissue Doppler E′/A′)” value (DOCA-salt mice; vs. DOCA-salt 0.74±0.05, P<0.001) was 1.12±1.10 and the “E/E′ ratio, a measure of left atrial pressure” value (DOCA-salt mice; vs. DOCA-salt 43.7±2.7, P<0.01) was 34.5±2.2.

For `COc1ccccc1OCC(O)CN1CCN(CC(=O)Nc2c(C)cccc2C)CC1` (stereo not shown) [ranolazine], the “phosphorylation levels of MyBP-C” value (MyBP-C) was “did not affect” and the MyBP-C glutathionylation [1] was “regressed level”.
